Measurements from PubChem BioAssay AID179 (DTP/NCI, 2004).
The source made the active and inactive calls.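 The calls were made as follows: active = compounds giving half or more protection of infected cells from virus-caused growth loss, again on retest; inactive = the rest.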 Where a SMILES comes first, the peptide text is derived from it. The star is where a group is joined. Boc = CC(C)(C)OC(=O)*; Bn = c1ccc(C*)cc1

Test system: CEM cells HIV-1 protection, formazan growth assay
Test: NCI AIDS Antiviral Assay
Conditions: for IC50: measured here: growth of uninfected CEM cells
Procedure, shortened: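 Steps: treat uninfected and HIV-1-infected human CEM cells at five drug levels; quantify growth by soluble formazan; retest any compound reaching 50% protection; classify actives from the retest.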

Nc1nc(Cl)c2ncn(C3C=CC(CO)CC3)c2n1 (stereo unspecified)
EC50: > 200 µM | IC50: 97.7 µM

CC1=NC(C)CNC(C)(C)CC(C)=NC(C)CNC(C)(C)C1 (stereo unspecified)
EC50: > 200 µM | IC50: > 200 µM

CCOC(=O)[C@@]1(C)CC(O)C(=O)N1C (stereo partly specified)
outcome: inactive

O=S1(=O)c2ccccc2N(c2ccccc2)c2nnnn21
EC50: > 79.4 µM | IC50: 33.1 µM

CC(=O)N1CC(C)(C)c2c(C)c(O)c(C)c(C)c21
EC50: > 200 µM | IC50: 178 µM

Cc1ccc([P+](Cc2ccc([N+](=O)[O-])cc2)(c2ccc(C)cc2)c2ccc(C)cc2)cc1
EC50: > 200 µM | IC50: 3.63 µM

Cn1c(-c2ccc(-c3cc(-c4cccs4)c(-c4cccs4)n3C)cc2)cc(-c2cccs2)c1-c1cccs1
EC50: > 200 µM | IC50: > 200 µM

COC(=O)CN=C1NC(=S)N(Cc2ccc(OC)cc2)C12CCCC2
EC50: > 200 µM | IC50: > 200 µM

NNC(=O)c1ccccc1NC(=O)/C(=C/c1ccccc1O)NC(=O)c1ccccc1
EC50: > 200 µM | IC50: > 200 µM

CN(C)c1ccc(/C=N\NC(=O)c2ccccc2Nc2ccccc2C(=O)N/N=C/c2ccc(N(C)C)cc2)cc1
EC50: 66.1 µM | IC50: > 200 µM

CCCCCCCCCCCC(=O)OC(COC(N)=O)COc1ccc(Cl)cc1 (stereo unspecified)
EC50: > 12.3 µM | IC50: > 12.3 µM

C/C(C=O)=N\Nc1cc(C)c2ccccc2n1
EC50: > 200 µM | IC50: 9.55 µM

Cn1c(=O)c2c(nc3n(Cc4ccccc4)c(=O)c(Br)cn23)n(C)c1=O
EC50: > 100 µM | IC50: 38.9 µM

CC1=C(c2ccccc2)NC(=S)C(C)C(c2ccccc2)=N1 (stereo unspecified)
EC50: > 200 µM | IC50: 28.2 µM

NC(=O)c1ccccc1NC(=O)C(=O)C(C(=O)c1ccc2ccccc2c1)C1OC(=O)c2ccccc21 (stereo unspecified)
EC50: > 52.5 µM | IC50: 15.8 µM

COc1ccc(OC)c(-c2cc(=O)c3c(OC)c(OC)c(OC)c(OC)c3o2)c1
EC50: > 200 µM | IC50: 29.5 µM

C[C@]12C=CC(=O)C=C1[C@@H](F)C[C@H]1[C@@H]3CC[C@](O)(C(=O)CO)[C@@]3(C)C[C@H](O)[C@@]12F
outcome: inactive

CC1=CN2C(c3ccc(Cl)cc3)=NON(c3ccc(C)cn3)C2C=C1 (stereo unspecified)
EC50: > 10.2 µM | IC50: > 10.2 µM

COC(=O)C(=O)C(C(=O)C(=O)Nc1ccc(F)cc1)c1nc2ccc([N+](=O)[O-])cc2[nH]c1=O (stereo unspecified)
EC50: > 550 µM | IC50: 245 µM

Cc1ccccc1NC(=O)Cc1csc(N=Nc2c(O)[nH]c3ccccc23)n1
EC50: > 200 µM | IC50: > 200 µM

CC1c2c(cc(=O)n(C)c2O)C(=O)N1Cc1ccccc1 (stereo unspecified)
EC50: > 347 µM | IC50: 257 µM

CC1(C)SC2C(NC(=O)C(C(=O)O)c3ccccc3)C(=O)N2C1C(=O)O (stereo unspecified)
EC50: > 200 µM | IC50: > 200 µM

N#Cc1nc(-c2cccs2)oc1N
EC50: > 200 µM | IC50: > 200 µM

COC(=O)c1cc(C(=CC(=O)N[C@H]2CC[C@]3(C)C4CC[C@]5(C)[C@@H](C(C)CCCC(C)C)CC[C@H]5C4CC[C@H]3C2)c2cc(Cl)c(OC)c(C(=O)OC)c2)cc(Cl)c1OC (stereo partly specified)
EC50: > 100 µM | IC50: > 100 µM

CCOC(=O)C1C2c3ccccc3C(c3ccccc32)C1C(=O)OCC (stereo unspecified)
EC50: > 200 µM | IC50: > 200 µM

Oc1ccc([S+](c2ccc(O)cc2)c2ccc(O)cc2)cc1
EC50: > 145 µM | IC50: > 145 µM

CCc1ccc(/C(C#N)=C/c2ccc(N(C)CCC#N)cc2)cc1
EC50: > 200 µM | IC50: 3.55 µM

CC(C)CCC[C@@H](C)C1CCC2[C@@H]3CC(OS(=O)(=O)O)C4C[C@@H](O)CC[C@]4(C)C3CC[C@@]21C (stereo partly specified)
EC50: > 49 µM | IC50: > 49 µM

CN(C)C1C(=O)C(C(=O)NCNC(CCS(C)=O)C(=O)O)=C(O)C2(O)C(=O)C3=C(O)c4c(O)cccc4C(C)(O)C3CC12 (stereo unspecified)
EC50: > 204 µM | IC50: > 100 µM

COc1ccc(C(c2c(O)c3ccccc3n(C)c2=O)c2c(O)c3ccccc3n(C)c2=O)cc1
EC50: > 8.13 µM | IC50: > 8.13 µM

CCOC(=O)C(CC[C@H]1c2[nH]c3ccccc3c2C[C@@H](C#N)N1C(=O)C(F)(F)F)C(=O)OCC
EC50: > 20.9 µM | IC50: > 20.9 µM

Cc1nc2c(=S)n(C)ncc2[nH]1
EC50: 30.9 µM | IC50: > 100 µM

c1cnc2c(c1)-n1cccc1C1(CCSCC1)NN2
EC50: > 60.3 µM | IC50: > 60.3 µM

Cc1ccc(N=c2oc3c(ccc4ccccc43)nc2Nc2ccc(C)cc2)cc1
EC50: > 200 µM | IC50: > 200 µM

c1ccc(CC[P+](c2ccccc2)(c2ccccc2)c2ccccc2)cc1
EC50: > 200 µM | IC50: 1.29 µM

C=CCOc1cc(NC(=S)c2ccoc2C)ccc1OC
EC50: 0.141 µM | IC50: 117 µM

O=S(=O)(C1=CC(S(=O)(=O)c2ccccc2)CN(Cc2ccccc2)C1c1ccccc1)c1ccccc1 (stereo unspecified)
outcome: inactive

COc1ccc(/C=C(\C#N)c2ccccc2[N+](=O)[O-])cc1
EC50: > 200 µM | IC50: 12.6 µM

CC(C)c1ccc2c(c1)CCC1C(C)(C)[C@@H](O)CC[C@]21C (stereo partly specified)
EC50: > 66.1 µM | IC50: 37.2 µM

Cn1c2ccccc2c2nnc(N/N=C/c3cccs3)nc21
EC50: > 200 µM | IC50: > 200 µM

NC(=O)CC(N)C(=O)NC(Cc1ccccc1)C(=O)NC(Cc1ccccc1)NC(=O)C(Cc1c[nH]c2ccccc12)C(=O)O (stereo unspecified)
EC50: > 200 µM | IC50: > 200 µM

O=c1cc(C(F)(F)F)[nH]c2c3ncccc3c3nc4ccccc4nc3c12
EC50: 0.214 µM | IC50: 2.82 µM

CCN(C(=O)N[C@@H](Cc1ccccc1)C(=O)N[C@@H](CC(C)C)C(=O)OC)c1ccccc1
EC50: 5.01 µM | IC50: 28.8 µM

O=C(CNC(c1ccccc1)(c1ccccc1)c1ccccc1)NC1CCCCC1NC(=O)CNC(c1ccccc1)(c1ccccc1)c1ccccc1 (stereo unspecified)
EC50: > 200 µM | IC50: > 200 µM

CC1=C[P+](CCc2ccccc2)(CCc2ccccc2)C=C1C
outcome: inactive

CCOP(=S)(Nc1cccc(C(F)(F)F)c1)OCC
EC50: > 200 µM | IC50: 166 µM

CN(C)CCCNC(=O)c1cc(NC(=O)c2cc(NC(=O)[C@@H]3C[C@H]3C(=O)Nc3cc(C(=O)Nc4cc(C(=O)NCCCN(C)C)n(C)c4)n(C)c3)cn2C)cn1C
outcome: inactive

COc1cccc(N=NN2CCCC2)c1
EC50: > 200 µM | IC50: 91.2 µM

Cc1ccc(-c2c(C#N)c(-c3ccc(Cl)cc3)c(C#N)c(=O)n2NS(=O)(=O)c2ccccc2)cc1
EC50: > 200 µM | IC50: 29.5 µM

COc1ccc(/C(C)=N/NC(=O)c2ccncc2)cc1OC
EC50: > 437 µM | IC50: > 437 µM

O=C1CCC2(c3ccc(F)cc3)Nc3cc(Cl)ccc3N12 (stereo unspecified)
outcome: inactive

COC(=O)C(CC(C)C)NC(=O)C(C)NC(=O)C(Cc1ccc(OCc2ccccc2)cc1)NC(=O)C(COCc1ccccc1)NC(=O)OC(C)(C)C (stereo unspecified) (Boc-S(Bn)Y(Bn)AL-OMe; configuration not given here)
EC50: > 200 µM | IC50: 83.2 µM

c1ccc(SCc2ccc3c(c2)OCO3)cc1
EC50: > 77.6 µM | IC50: > 77.6 µM

CCOC(=O)c1cc2c3c(c1)C(=O)CCN3CCC2=O
outcome: inactive

COc1ccc(C(C2=C(O)CC(C)OC2=O)C2=C(O)CC(C)OC2=O)cc1 (stereo unspecified)
EC50: > 661 µM | IC50: 427 µM

COC(=O)C(C(=O)C(=O)Nc1ccccc1OC)c1csc(-n2nc(-c3ccccc3)cc2-c2ccccc2)n1 (stereo unspecified)
EC50: > 115 µM | IC50: 97.7 µM

c1ccc(-c2csc3c2-n2cccc2C3N2CCCC2)cc1 (stereo unspecified)
EC50: > 200 µM | IC50: 13.5 µM

Cc1cc(=O)c2c([nH]1)c1c(c3[nH]c(C)cc(=O)c32)Oc2ccccc2O1
EC50: > 129 µM | IC50: 93.3 µM

Cc1cc(N=Nc2c(O)c3ccccc3[nH]c2=O)ccc1N=Nc1ccc(C(=O)N(C)C)cc1
EC50: > 200 µM | IC50: 151 µM

O=c1[nH]nnc2ccccc12
EC50: > 245 µM | IC50: > 245 µM

O=C(O)CCC(NC(=O)c1ccc(Nc2nc3ccccc3nc2C(=O)O)cc1)C(=O)O (stereo unspecified)
EC50: > 200 µM | IC50: > 200 µM

CC[C@@]1(OC(=O)C(N)CCCCN)C(=O)OCc2c1cc1n(c2=O)Cc2cc3ccccc3nc2-1 (stereo partly specified)
EC50: > 10 µM | IC50: 0.0112 µM

Brc1ccc2c(c1)C1=C(CO2)Cc2ccccc2O1
outcome: inactive

OC1=CN=COc2ccccc21
EC50: > 813 µM | IC50: 479 µM

O/N=C1/C(=C/c2ccc(Br)cc2)CCCC1C(NO)c1ccc(Br)cc1 (stereo unspecified)
EC50: > 20.9 µM | IC50: > 20.9 µM

COc1ccc2c3c(c(C(=O)O)oc13)CCC2
outcome: inactive

CCOC(=O)/C=C/CC(C)(C)CCOC(C)=O
EC50: > 200 µM | IC50: > 200 µM

BrC(Br)([P+](c1ccccc1)(c1ccccc1)c1ccccc1)[P+](c1ccccc1)(c1ccccc1)c1ccccc1
outcome: inactive

CCOC(=O)c1cc2c(nc1N)/C(=C/c1ccccc1)CCCC2
EC50: > 200 µM | IC50: 10.7 µM

CC(C)(C)c1cc(CCC(=O)Nc2ccccc2[N+](=O)[O-])cc(NC#N)n1
outcome: inactive

CCOC(=O)C(Cc1ccccc1[N+](=O)[O-])C(=O)OCC
EC50: > 200 µM | IC50: 102 µM

COC(=O)c1ccc(SSc2ccc(C(=O)OC)cc2[N+](=O)[O-])c([N+](=O)[O-])c1
outcome: inactive

N#C/C(=C\c1ccc(O)c(O)c1)C(=O)NCCCNC(=O)/C(C#N)=C/c1ccc(O)c(O)c1
EC50: > 200 µM | IC50: 66.1 µM

COc1cccc(C2SC(N)=Nc3c2c(C)nn3C(=O)Cc2ccccc2)c1 (stereo unspecified)
EC50: 79.4 µM | IC50: 129 µM

O=C(O)c1cccc(S(=O)(=O)NN2C(=O)CSC2c2ccccc2Cl)c1 (stereo unspecified)
EC50: > 195 µM | IC50: 166 µM

CCOC(=O)c1[nH]n(-c2ccccc2)c(=O)c1/C=N/C(=S)N=Nc1c(O)[nH]c2ccccc12
EC50: > 200 µM | IC50: > 100 µM

CC/C(=C(\c1ccccc1)c1ccc(OCC[N+](C)(C)C)cc1)c1ccccc1
outcome: inactive

COc1cc2cc(C(=O)N3CC(CCl)c4c3cc(N(C)C)c3ccccc43)[nH]c2c(OC)c1OC (stereo unspecified)
EC50: > 0.2 µM | IC50: 0.0129 µM

N#C/C(=C\c1ccc(-c2ccccc2)cc1)c1ccc(Cl)cc1
EC50: > 100 µM | IC50: > 100 µM

O=c1/c(=C/c2ccccn2)sc2nc3cc4c(cc3n12)OCCO4
EC50: > 200 µM | IC50: > 200 µM

COc1cc(N)c2c(c1)SC(c1ccccc1)C(=O)N2 (stereo unspecified)
EC50: > 200 µM | IC50: 120 µM

CCC[CH2][Sn]([CH2]CCC)([CH2]CCC)[CH2]N1CCC(=O)C[C@@H]1C/C=C/[P@]1(=O)O[C@H](c2ccccc2)C(C)N1C(C)C (stereo partly specified)
outcome: inactive

COC(=O)c1sc2c(SC#N)c3ccccn3c2c1C
outcome: inactive
